These are literature values, as cited in paper PMC10318822, “Phase 1 dose-escalation study to evaluate the safety, tolerability, pharmacokinetics, and anti-tumor activity of FCN-159 in adults with neurofibromatosis type 1-related unresectable plexiform neurofibromas” (BMC Medicine, 2023).

Read-outs that look alike come from different tables or passages of the source.

Data set [1] deals with patients. To be noted: in vivo; cited from earlier work.
For data set [2] the following is noted: cited from earlier work; for RP2D: twice daily.
Data set [3] has as its system NF1-related PN. The following applies: cited from earlier work.
Data set [4] deals with patients. Details: method as in PMID 20215549. The following applies: cited from earlier work.
For data set [5], the system named is NF1-related PN. Details: method as in PMID 33507822. The following applies: adult patients with NF1 and progressive PN, 2 mg/m^2 twice daily, n = 8/19; cited from earlier work.

Take `Cn1cnc2c(F)c(Nc3ccc(Br)cc3Cl)c(C(=O)NOCCO)cc21` [selumetinib]: in the data set on patients [1], the “Patients reporting AEs of CTCAE grade 3 or above” value is “up to 71.4%”, the “Patients with acneiform dermatitis” value is listed as 62.5% and the “Visual function AEs” value is given as 17.9%. In data set [2], the “Dose proportionality of plasma concentration increase” value is reported as “less than dose-proportional”, the Terminal half-life was 6.0 to 6.9 h and the RP2D is given as 25 mg/m^2. Further, in data set [2] (human, in vivo), the “Time to Cmax” value was 1.00 to 1.10 h. Besides, the “Partial responses (PRs)” value with NF1-related PN [3] (interim results, phase II study in adults (NCT02407405), n = 16/23) is 69%. The Response rate with NF1-related PN [3] (pediatric patients with NF1-related PN) is recorded as 40–70%. For the same compound, in the data set on NF1-related PN [3] (phase I study, children, 20–30 mg/m^2 twice daily, n = 17/24), the “Partial responses (PRs)” value is listed as 71%. For the same compound, in the data set on NF1-related PN [3] (phase II trial, n = 34/50), the “Partial responses (PRs)” value is on record as 68%.
As to `O=C(NOC[C@H](O)CO)c1ccc(F)c(F)c1Nc1ccc(I)cc1F` [mirdametinib], in data set [2], the Terminal half-life is 4.6 to 18.0 h; the “Terminal half-life, average” value was 7.8 h; the RP2D was 2 mg/m^2. Further, in the data set with patients [4], the Blurred vision was 10.6%, the Patients with rash was 78.8% and the Visual disturbance is reported as 13.6%. The Response rate with NF1-related PN [5] is recorded as 42%.
